Data taken from ChEMBL document CHEMBL1122771, “Effects of volume and surface property in hydrolysis by acetylcholinesterase. The trimethyl site” (J Med Chem, 1984).

Tests used:
[1] = test system: acetylcholinesterase; assay: Compound was tested for hydrolysis by acetylcholinesterase and the kinetic constant, (Km) an apparent dissociation constant, and related to the enzyme's affinity for the substrate was reported; assay type: ADME
[2] = Compound was tested for hydrolysis by acetylcholinesterase and the kinetic constant (kcat) which is a first-order rate constant was determined
[3] = test system: acetylcholinesterase; assay: in vitro
Description: Compound was tested for hydrolysis by acetylcholinesterase and the kinetic constant, (Km) an apparent dissociation constant, and related to the enzyme's affinity for the substrate was reported.

Compound | Km [1] [mM] | k cat [2] [s⁻¹] | Km ([3]; acetylcholinesterase) [mM] | Km [3] [mM]
CC(=O)OCCS(C)(=O)=O | 6.2 | 11 | – | –
CC(=O)OCCCl | – | 3400 | 14 | –
CC(=O)OCCC(C)C | – | 3400 | 3.6 | –
CC(=O)OCCBr | – | 4500 | 7.5 | –
CC(=O)OCCC(C)(C)C | 5.3 | 66 | – | –
CSCCOC(C)=O | – | 3500 | 15 | –
CC(=O)OCC[N+](C)(C)[O-] | – | 4500 | 18 | –
CC(=O)OCC[S+](C)[O-] (stereo not given) | – | 3800 | 16 | –
CC(=O)OCC[Si](C)(C)C | – | 5700 | 3.5 | –
CC(=O)OCC[S+](C)C.[Br-] | – | 7700 | 0.33 | –
CCCCOC(C)=O [ACETIC ACID BUTYL ESTER] | – | 36 | – | 13
CC(=O)OCC[N+](C)(C)C [ACETYLCHOLINE] | 0.33 | 160 | – | –
CCOC(C)=O [ETHYL ACETATE] | – | 2900 | – | –
